Test results as given in US20240358693A1, “METHODS OF TREATING PAIN” (Aisa Pharma, Inc., priority 2023, published 2024).

Assays:
[1] = 10 mg Cilnidipine, Healthy Volunteers, single oral dose; cited from earlier work
participants with SSc-RP = assay: Summary of data: dose response / overall response, Phase 2a study Part A; format: in vivo, human; details: 20 mg dose group
Source text: Table S provides a summary of data:

Nav 1.7 sodium channel = Nav 1.7 sodium channel (Homo sapiens, UniProt Q15858); details: 20 mg dose of cilnidipine; cited from earlier work
Sequence of Nav 1.7 sodium channel (Q15858 whole entry): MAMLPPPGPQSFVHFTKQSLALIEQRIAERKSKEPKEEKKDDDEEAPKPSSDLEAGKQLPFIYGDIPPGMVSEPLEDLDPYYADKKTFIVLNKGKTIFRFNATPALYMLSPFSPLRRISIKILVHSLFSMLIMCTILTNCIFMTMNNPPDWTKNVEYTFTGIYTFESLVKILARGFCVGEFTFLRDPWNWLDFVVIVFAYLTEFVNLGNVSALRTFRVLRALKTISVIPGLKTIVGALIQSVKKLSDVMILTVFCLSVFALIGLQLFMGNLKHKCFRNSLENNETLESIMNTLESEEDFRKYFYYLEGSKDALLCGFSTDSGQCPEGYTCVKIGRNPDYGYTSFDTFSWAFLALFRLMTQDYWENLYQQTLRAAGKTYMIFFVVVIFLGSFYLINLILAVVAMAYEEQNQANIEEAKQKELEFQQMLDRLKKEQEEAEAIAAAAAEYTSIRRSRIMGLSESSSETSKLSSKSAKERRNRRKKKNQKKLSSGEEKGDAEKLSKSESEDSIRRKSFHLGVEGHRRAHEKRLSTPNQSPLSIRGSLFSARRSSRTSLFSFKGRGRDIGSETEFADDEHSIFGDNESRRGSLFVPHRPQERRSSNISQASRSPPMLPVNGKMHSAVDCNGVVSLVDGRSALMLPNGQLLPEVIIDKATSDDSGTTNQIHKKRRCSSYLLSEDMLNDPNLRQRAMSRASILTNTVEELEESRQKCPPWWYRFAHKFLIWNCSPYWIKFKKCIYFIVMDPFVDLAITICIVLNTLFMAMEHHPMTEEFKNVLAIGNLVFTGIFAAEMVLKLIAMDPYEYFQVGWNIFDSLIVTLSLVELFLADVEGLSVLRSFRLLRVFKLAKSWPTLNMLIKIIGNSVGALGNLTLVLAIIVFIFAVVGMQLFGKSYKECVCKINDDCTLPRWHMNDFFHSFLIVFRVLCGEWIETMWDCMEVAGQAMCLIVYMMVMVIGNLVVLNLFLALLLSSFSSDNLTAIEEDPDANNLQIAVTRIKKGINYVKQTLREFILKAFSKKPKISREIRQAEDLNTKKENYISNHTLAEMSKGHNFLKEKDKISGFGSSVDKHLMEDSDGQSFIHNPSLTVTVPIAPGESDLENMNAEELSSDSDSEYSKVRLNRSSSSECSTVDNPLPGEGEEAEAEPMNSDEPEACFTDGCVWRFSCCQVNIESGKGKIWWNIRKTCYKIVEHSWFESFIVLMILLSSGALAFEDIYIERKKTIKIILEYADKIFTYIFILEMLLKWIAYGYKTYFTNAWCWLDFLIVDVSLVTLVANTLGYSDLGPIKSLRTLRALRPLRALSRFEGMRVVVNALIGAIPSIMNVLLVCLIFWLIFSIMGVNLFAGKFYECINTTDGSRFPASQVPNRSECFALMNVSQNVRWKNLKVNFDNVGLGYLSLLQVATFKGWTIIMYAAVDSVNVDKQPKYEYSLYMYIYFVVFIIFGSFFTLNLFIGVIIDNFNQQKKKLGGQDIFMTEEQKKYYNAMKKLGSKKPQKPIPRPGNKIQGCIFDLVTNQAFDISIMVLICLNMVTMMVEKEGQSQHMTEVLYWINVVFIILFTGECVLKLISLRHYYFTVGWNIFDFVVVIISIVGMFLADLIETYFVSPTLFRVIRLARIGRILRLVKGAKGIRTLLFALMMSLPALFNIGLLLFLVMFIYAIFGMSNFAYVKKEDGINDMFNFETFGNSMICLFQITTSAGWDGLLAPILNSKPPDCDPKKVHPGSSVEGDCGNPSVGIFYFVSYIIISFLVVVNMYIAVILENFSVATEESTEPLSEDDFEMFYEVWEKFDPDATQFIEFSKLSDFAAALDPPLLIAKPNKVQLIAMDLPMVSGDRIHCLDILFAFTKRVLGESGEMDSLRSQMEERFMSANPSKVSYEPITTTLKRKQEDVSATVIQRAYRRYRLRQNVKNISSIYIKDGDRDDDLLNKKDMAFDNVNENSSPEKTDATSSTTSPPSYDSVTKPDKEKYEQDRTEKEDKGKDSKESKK

plasma protein = details: oral; cited from earlier work
rat plasma proteins = assay: In vitro equilibrium dialysis (RED) protein binding, rat plasma; format: in vitro ADME
Description: (§1) Cilnidipine was tested by PsychoGenics using standard methodology in 96-well RED (Rapid Equilibrium Dialysis) plates from Thermo Fisher Scientific. Male Sprague-Dawley plasma and brain were obtained from BioIVT to provide the required protein matrix. Plasma was used undiluted, and brain homogenate was diluted 3 to 1 with PBS, pH 7.4. The protein matrix was spiked with the test compound dissolved in DMSO to achieve a 10 μM solution. Three chambers were used to allow for triplicate measures with a final DMSO concentration of <1% in each. The dialysate compartments of the 96-well dialysis chamber was loaded with PBS, pH 7.4 and the sample side was loaded with equal volume of the spiked protein matrix. The dialysis plate was then sealed and incubated at 37° C. for 4 h. After the incubation, samples were taken from each compartment. The buffer side was diluted with the appropriate matrix (plasma or brain homogenate) and the protein matrix side diluted with phosphate buffer. Resultant samples were then crashed in acetonitrile, centrifuged and the supernatant mixed with an aqueous solution providing samples for UPLC-MS/MS analysis. […] This control sample served as the basis for the determination of recovery. […] Samples were analyzed by UPLC-MS/MS using […] (MRM). The UPLC conditions consisted of a binary LC pump with autosampler, an InertSustain column (C18 column, 2.1×50 mm), utilizing gradient elution. The peak areas of the test compound in the buffer and test samples were used to calculate percent binding and recovery according to the following formulas: […]
(§2) The recovery determination serves as an indicator of reliability of the calculated protein binding value.
(§3) The characterization of protein binding is defined using the following ranges:
(§4) • Low 0 to 50% • Moderate 50 to 90% • High 90 to 99% • Very High>99%

[2] = as above; format: in vitro ADME; details: male, Sprague-Dawley, pH 7.4
Description: as §1, §2, §3, §4

[3] = oral dosing; cited from earlier work
[4] = In vitro equilibrium dialysis (RED) protein binding, rat brain homogenate; format: in vitro ADME; details: male, Sprague-Dawley, rat, pH 7.4
Description: as §1, §2, §3, §4

[5] = tested on: rat brain homogenate proteins; assay: as above; format: in vitro ADME
Description: as §1, §2, §3, §4

[6] = male, Sprague-Dawley, plasma, 4 h, 10 μM, pH 7.4

In the case of COCCOC(=O)C1=C(C)NC(C)=C(C(=O)OC/C=C/c2ccccc2)C1c1cccc([N+](=O)[O-])c1 (stereo not drawn) [Cilnidipine, cilnidipine], the “CL/F, Mean” value [1] is given as 304.7 L/h, the “Efficacy seen: overall response” value (participants with SSc-RP) is given as “shows best overall” and the “inhibition of Nav 1.7 compared to an 1800 mg dose of gabapentin” value (Nav 1.7 sodium channel) is given as greater than 6 fold. The “protein bound (protein binding in plasma) when given orally” value (plasma protein) was 98%, the binding to plasma (rat plasma proteins; male, Sprague-Dawley, 4 h, 10 μM, pH 7.4) was 100% and the “Protein Binding (%)” value (rat plasma proteins; [6]) was 100.0 ± 0.00%. The “Unbound (%)” value (rat plasma proteins; [6]) was 0.0 ± 0.00%, the stability in plasma (rat plasma proteins; plasma) was “stable” and the recovery at 4 h, 10 μM [2] was 92.9 ± 4.69%. The “time to achieve maximal plasma concentrations (Tmax)” value [3] was no more than 2 h, the fraction unbound at 4 h, 10 μM ([4]; brain homogenate) was 0.008 and the recovery at 4 h, 10 μM [4] was 93.7 ± 3.25%. For the same molecule, the stability in brain [5] was “stable”, the binding to brain ([5]; male, Sprague-Dawley, rat, 4 h, 10 μM, pH 7.4) was 99.2% and the “Unbound (%)” value ([5]; male, Sprague-Dawley, rat, brain homogenate, 4 h, 10 μM, pH 7.4) was 0.8 ± 0.03%.
